T/C data for 20 molecules are collected here from PubChem BioAssay AID208 (DTP/NCI, 2004).

Where “and” joins values, the source holds several entries; their conditions need not be identical. Equal values may be shown once. Results filed as inconclusive are left out.

In this assay the test system is HT29 intrarenal xenograft, nude mice, tumor weight change. Nature of the assay: NCI In Vivo Anticancer Drug Screen. Data for tumor model HT29;CX-1 Human Adenocarcinoma (MER+) (intrarenal inoculation) in NU/NU BALB/C (nude) mice. To be noted: endpoint: mean tumor weight change, higher = larger tumour. The method, then: The antitumor activity of compounds was measured in mice bearing transplantable tumors. Survival or tumor size were measured and the results are expressed as the measurement made in the treated group (T) divided by the measurement made in the vehicle treated control group (C). The tumor model used in this assay is HT29;CX-1 Human Adenocarcinoma (MER+) (intrarenal inoculation) in NU/NU BALB/C (nude) mice

[1] abbreviates: dose: 100.0 mg/kg/injection, schedule: Q04DX004 (sc), vehicle: Klucel (hydroxypropylcellulose) (HPC).
Setting [2] is: dose: 150.0 mg/kg/injection, schedule: Q04DX004 (sc), vehicle: saline + alcohol.
The mark [3] stands for this setting: dose: 25.0 mg/kg/injection, schedule: Q01DX010 (sc), vehicle: saline with Tween-80.
[4] abbreviates: dose: 100.0 mg/kg/injection, schedule: Q01DX010 (sc), vehicle: saline with Tween-80.

As for `NC(=O)CCC(N)C(=O)O` (configuration not stated), the T/C runs as follows: (dose: 75.0 mg/kg/injection, schedule: Q04DX004 (ip), vehicle: suspension in saline) 101 % of control; (dose: 150.0 mg/kg/injection, schedule: Q04DX004 (ip), vehicle: suspension in saline) 70 % of control; (dose: 600.0 mg/kg/injection, schedule: Q04DX004 (ip), vehicle: suspension in saline) 95 % of control; (dose: 1200.0 mg/kg/injection, schedule: Q04DX004 (ip), vehicle: suspension in saline) 107 % of control.
Take `CCC1=C[C@H]2CN(CCc3c([nH]c4ccccc34)[C@@](C(=O)OC)(c3cc4c(cc3OC)N(C)[C@H]3[C@@](O)(C(=O)OC)[C@H](OC(C)=O)[C@]5(CC)C=CCN6CC[C@]43[C@@H]65)C2)C1`: the T/C (dose: 0.38 mg/kg/injection, schedule: Q04DX004 (sc), vehicle: water) was 116 % of control; the T/C (dose: 0.75 mg/kg/injection, schedule: Q04DX004 (sc), vehicle: water) is 159 % of control; the T/C (dose: 1.5 mg/kg/injection, schedule: Q04DX004 (sc), vehicle: water) is 118 % of control; the T/C (dose: 3.0 mg/kg/injection, schedule: Q04DX004 (sc), vehicle: water) is 40 % of control; the T/C (dose: 6.0 mg/kg/injection, schedule: Q04DX004 (sc), vehicle: water) is 100 % of control; the T/C (dose: 12.0 mg/kg/injection, schedule: Q04DX004 (sc), vehicle: water) is 66 % of control.
Turning to `C=CC(C)(C)n1cc(C2=C(O)C(=O)C(c3cn(C(C)(C)C=C)c4ccccc34)=C(O)C2=O)c2ccccc21`, the T/C is 113 % of control (dose: 25.0 mg/kg/injection, schedule: Q04DX004 (sc), vehicle: Klucel (hydroxypropylcellulose) (HPC)); 118 % of control under setting [1]; 121 % of control (dose: 200.0 mg/kg/injection, schedule: Q04DX004 (sc), vehicle: Klucel (hydroxypropylcellulose) (HPC)).
As for `C=CC(C)NC(=S)NNC(=S)NC` (configuration not stated), the T/C was 91 % of control under setting [2]; 44 % of control (dose: 300.0 mg/kg/injection, schedule: Q04DX004 (sc), vehicle: saline + alcohol); 97 % of control (dose: 600.0 mg/kg/injection, schedule: Q04DX004 (sc), vehicle: saline + alcohol); 74 % of control (dose: 1200.0 mg/kg/injection, schedule: Q04DX004 (sc), vehicle: saline + alcohol).
Take `Cc1cc(N(CC(C)Br)CC(C)Br)ccc1N=Nc1ccccc1C(=O)O` (configuration not stated): the T/C was 65 % of control (dose: 3.13 mg/kg/injection, schedule: Q01DX010 (sc), vehicle: saline with Tween-80); 55 % of control (dose: 6.25 mg/kg/injection, schedule: Q01DX010 (sc), vehicle: saline with Tween-80); 57 % of control (dose: 12.5 mg/kg/injection, schedule: Q01DX010 (sc), vehicle: saline with Tween-80).
`N#CC(C#N)=C/C=C/c1cccc([N+](=O)[O-])c1`: the T/C was 81 % of control (dose: 25.0 mg/kg/injection, schedule: Q01DX010 (sc), vehicle: Klucel (hydroxypropylcellulose) (HPC)); 90 % of control (dose: 50.0 mg/kg/injection, schedule: Q01DX010 (sc), vehicle: Klucel (hydroxypropylcellulose) (HPC)); 76 % of control (dose: 100.0 mg/kg/injection, schedule: Q01DX010 (sc), vehicle: Klucel (hydroxypropylcellulose) (HPC)); 63 % of control (dose: 200.0 mg/kg/injection, schedule: Q01DX010 (sc), vehicle: Klucel (hydroxypropylcellulose) (HPC)).
As to `CSc1ncnc2c1ncn2C1OC(CO)C(O)C1O` (configuration not stated), the T/C is, setting by setting: (dose: 37.5 mg/kg/injection, schedule: Q04DX004 (sc), vehicle: saline + alcohol) 101 % of control; (dose: 75.0 mg/kg/injection, schedule: Q04DX004 (sc), vehicle: saline + alcohol) 30 % of control; under setting [2], 12 % of control.
Consider `N=c1c(C(=O)OCc2ccccc2)ncc(CCl)n1O`, for which the T/C by setting is: (dose: 150.0 mg/kg/injection, schedule: Q04DX004 (sc), vehicle: saline with Tween-80) 67 % of control; (dose: 300.0 mg/kg/injection, schedule: Q04DX004 (sc), vehicle: saline with Tween-80) 58 % of control; (dose: 600.0 mg/kg/injection, schedule: Q04DX004 (sc), vehicle: saline with Tween-80) 49 % of control; (dose: 1200.0 mg/kg/injection, schedule: Q04DX004 (sc), vehicle: saline with Tween-80) 75 % of control.
`O=C1N[C@H]2[C@H](CS[C@H]2CCCCC(=O)N(CCP(c2ccccc2)c2ccccc2)CCP(c2ccccc2)c2ccccc2)N1`: the T/C is, setting by setting: (dose: 150.0 mg/kg/injection, schedule: Q04DX004 (sc), vehicle: Klucel (hydroxypropylcellulose) (HPC)) 121 % of control; (dose: 600.0 mg/kg/injection, schedule: Q04DX004 (sc), vehicle: Klucel (hydroxypropylcellulose) (HPC)) 86 % of control.
For `COC1=C(OC)C(=O)C(SC/C=C(\C)CCCC(C)CCCC(C)CCCC(C)C)=CC1=O` (configuration not stated), the T/C is 97 % of control (dose: 300.0 mg/kg/injection, schedule: Q04DX004 (ip), vehicle: saline with Tween-80); 83 % of control (dose: 600.0 mg/kg/injection, schedule: Q04DX004 (ip), vehicle: saline with Tween-80); 88 % of control (dose: 1200.0 mg/kg/injection, schedule: Q04DX004 (ip), vehicle: saline with Tween-80).
For `CN(C)c1ccc2c(NCCCCCCNc3ccnc4cc(N(C)C)ccc34)ccnc2c1`, the T/C reads like this: (dose: 37.5 mg/kg/injection, schedule: Q04DX004 (sc), vehicle: distilled water + Tween-80 + alcohol) 92 % of control; (dose: 75.0 mg/kg/injection, schedule: Q04DX004 (sc), vehicle: distilled water + Tween-80 + alcohol) 60 % of control; (dose: 150.0 mg/kg/injection, schedule: Q04DX004 (sc), vehicle: distilled water + Tween-80 + alcohol) 54 % of control.
Consider `CC(=O)OCC(=O)[C@@]12OC(C)(C)O[C@@H]1C[C@H]1[C@@H]3CC(C=O)=C4C=C(OCCCl)CC[C@]4(C)[C@@]3(F)[C@@H](O)C[C@@]12C`, for which the T/C is 101 % of control (dose: 50.0 mg/kg/injection, schedule: Q04DX004 (sc), vehicle: Klucel (hydroxypropylcellulose) (HPC)) and 23 % of control under setting [1].
On to `CCCCc1ccc2nc(NC(=O)OC)[nH]c2c1`, for which the T/C runs as follows: under setting [3], 108 % of control; under setting [4], 90 % of control; (dose: 200.0 mg/kg/injection, schedule: Q01DX010 (sc), vehicle: saline with Tween-80) 94 % of control.
For the molecule `CCN1C=C/C(=C\C=C/c2cc[n+](CC)c3ccccc23)c2ccccc21`, where the note is “dose: 0.5 mg/kg/injection, schedule: Q01DX010 (sc), vehicle: saline”, the T/C is 229 % of control.
For `OCCOCCN1CCN(CCCN2c3ccccc3Sc3ccc(C(F)(F)F)cc32)CC1`, the T/C is, setting by setting: (dose: 12.0 mg/kg/injection, schedule: Q01DX010 (sc), vehicle: saline) 23 % of control; (dose: 24.0 mg/kg/injection, schedule: Q01DX010 (sc), vehicle: saline) 47 % of control; (dose: 48.0 mg/kg/injection, schedule: Q01DX010 (sc), vehicle: saline) 42 % of control.
Turning to `BrCCC1(CCBr)CCCCC1`, the T/C (dose: 300.0 mg/kg/injection, schedule: Q04DX004 (sc), vehicle: water) was 97 % of control; the T/C (dose: 600.0 mg/kg/injection, schedule: Q04DX004 (sc), vehicle: water) is 77 % of control; the T/C (dose: 1200.0 mg/kg/injection, schedule: Q04DX004 (sc), vehicle: water) was 58 % of control; the T/C (dose: 2400.0 mg/kg/injection, schedule: Q04DX004 (sc), vehicle: water) was 76 % of control.
Turning to `COc1cc2cc(c1Cl)N(C)C(=O)C[C@H](OC(=O)[C@H](C)N(C)C(C)=O)[C@]1(C)O[C@H]1[C@H](C)[C@@H]1C[C@@](O)(NC(=O)O1)[C@H](OC)C=C/C=C(\C)C2`, the T/C was 315 % of control (dose: 25.0 micrograms/kg/injection, schedule: Q01DX010 (sc), vehicle: Klucel (hydroxypropylcellulose) (HPC)); 118 % of control and 310 % of control (dose: 50.0 micrograms/kg/injection, schedule: Q01DX010 (sc), vehicle: Klucel (hydroxypropylcellulose) (HPC)).
For the molecule `CS(=O)(=O)c1ncc(Br)cn1`, the T/C by setting is: under setting [3], 106 % of control; (dose: 50.0 mg/kg/injection, schedule: Q01DX010 (sc), vehicle: saline with Tween-80) 123 % of control; under setting [4], 185 % of control.
As for `CC1(C)COCN1COCCOCN1COCC1(C)C`, the T/C was 66 % of control (dose: 50.0 mg/kg/injection, schedule: Q04DX004 (sc), vehicle: saline); 122 % of control (dose: 100.0 mg/kg/injection, schedule: Q04DX004 (sc), vehicle: saline); 58 % of control (dose: 200.0 mg/kg/injection, schedule: Q04DX004 (sc), vehicle: saline); 122 % of control (dose: 400.0 mg/kg/injection, schedule: Q04DX004 (sc), vehicle: saline).
As for `Nc1nc(=S)c2ncn(C3CC(O)C(CO)O3)c2[nH]1` (configuration not stated), the T/C (dose: 1.88 mg/kg/injection, schedule: Q01DX010 (sc), vehicle: saline with Tween-80) is 164 % of control.
